In patent US7135466B2 (Kirin Beer Kabushiki Kaisha, priority 1999, dated 2006) one finds IC50 and inhibition data, which are given here for 38 molecules.

The target in the first assay is T1, c-kit (Homo sapiens, UniProt P10721).
T1 construct: MO7e (human megakaryocytic leukemia cell line) which had been arrested for 20 hr; endogenous in cells; host or cells: MO7e human megakaryocytic leukemia cell line
T1 sequence (P10721 26-976): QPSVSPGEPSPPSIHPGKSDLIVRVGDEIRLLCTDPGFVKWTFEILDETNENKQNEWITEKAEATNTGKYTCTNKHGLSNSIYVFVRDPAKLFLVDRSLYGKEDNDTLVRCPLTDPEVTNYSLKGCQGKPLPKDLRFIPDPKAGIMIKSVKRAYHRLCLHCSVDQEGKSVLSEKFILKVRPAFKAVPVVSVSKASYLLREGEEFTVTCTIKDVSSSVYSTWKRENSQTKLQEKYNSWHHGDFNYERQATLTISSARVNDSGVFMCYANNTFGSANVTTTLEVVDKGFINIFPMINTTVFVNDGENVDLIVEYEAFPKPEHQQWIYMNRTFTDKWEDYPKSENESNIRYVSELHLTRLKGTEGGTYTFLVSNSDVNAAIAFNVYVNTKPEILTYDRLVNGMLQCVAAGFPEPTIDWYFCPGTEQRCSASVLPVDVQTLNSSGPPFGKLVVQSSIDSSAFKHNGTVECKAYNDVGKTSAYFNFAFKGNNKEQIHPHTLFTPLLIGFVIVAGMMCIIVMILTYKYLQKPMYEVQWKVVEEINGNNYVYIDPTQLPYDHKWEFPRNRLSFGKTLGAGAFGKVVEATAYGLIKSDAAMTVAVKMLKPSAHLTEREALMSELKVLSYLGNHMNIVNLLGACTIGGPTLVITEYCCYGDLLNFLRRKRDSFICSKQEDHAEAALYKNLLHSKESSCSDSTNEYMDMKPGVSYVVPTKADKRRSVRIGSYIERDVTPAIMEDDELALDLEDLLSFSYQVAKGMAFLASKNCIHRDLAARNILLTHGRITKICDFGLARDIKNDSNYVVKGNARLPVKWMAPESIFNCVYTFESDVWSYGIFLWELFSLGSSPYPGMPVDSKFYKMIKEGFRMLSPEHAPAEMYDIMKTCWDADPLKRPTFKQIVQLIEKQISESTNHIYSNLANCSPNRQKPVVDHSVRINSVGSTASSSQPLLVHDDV
The assay is described as follows: Inhibitory activity against c-kit autophosphorylation (MO7e cells, h-SCF). Format: cell-based. The settings on record: MO7e cells, 50 ng/ml h-SCF; read-out: c-kit IC50. The protocol: Inhibitory Activity Against c-kit Autophosphorylation
MO7e (human megakaryocytic leukemia cell line) which had been arrested for 20 hr was seeded into 96 well plates at an amount of 2×10^5 per well. A solution of a test compound in DMSO was added, and a reaction was then allowed to proceed for one hr. Thereafter, the cells were stimulated by 50 ng/ml of h-SCF for 5 min, followed by replacement with lysate buffer to solubilize the cells.
Next, the solubilized cell sap was transferred to a 96-well plate with an anti-phosphotyrosine antibody (PY-20) previously immobilized thereon, and a reaction was allowed to proceed. Thereafter, the cells were reacted with an anti-c-kit antibody (c-19, Santa Cruz) as a primary antibody and were labelled with GAR (anti-rabbit IgG, horseradish peroxidase, Amersham) as a secondary antibody. Color development was then carried out in a peroxidase color development kit (Sumitomo Bakelite Co., Ltd.), and the absorbance was measured at a wavelength of 450 nm.
For `COc1cccc(NC(=O)COc2ccc(Oc3ccnc4cc(OC)c(OC)cc34)cc2)c1` [Example 778, N1-(3-Methoxyphenyl)-2-{4-[(6,7-dimethoxy-4-quinolyl)oxy]phenoxy}acetamide], the half-inhibitory concentration (IC50) came out at 84 nM. Consider `COc1ccc(NC(=O)COc2ccc(Oc3ccnc4cc(OC)c(OC)cc34)cc2)cc1` [Example 780, N1-(4-Methoxyphenyl)-2-{4-[(6,7-dimethoxy-4-quinolyl)oxy]phenoxy}acetamide], for which the IC50 was determined as 48 nM. On the same count and under the same terms, the figure for `COc1ccc(NCCOc2ccc(Oc3ccnc4cc(OC)c(OC)cc34)cc2)cc1` [Example 781, N-(2-{4-[(6,7-Dimethoxy-4-quinolyl)oxy]phenoxy}ethyl)-N-(4-methoxyphenyl)amine] is 135 nM; for `COc1cc2nccc(Oc3ccc(OCC(=O)Nc4ccccc4C)cc3)c2cc1OC` [Example 782, N1-(2-Methylphenyl)-2-{4-[(6,7-dimethoxy-4-quinolyl)oxy]phenoxy}acetamide] it is 365 nM. Same read-out and setting: the figure for `COc1cc2nccc(Oc3ccc(OCCNc4ccccc4C)cc3)c2cc1OC` [Example 783, N-(2-{4-[(6,7-Dimethoxy-4-quinolyl)oxy]phenoxy}ethyl)-N-(2-methylphenyl)amine] is 451 nM. Consider `COc1cc2nccc(Oc3ccc(OCC(=O)Nc4cccc(C)c4)cc3)c2cc1OC` [Example 784, N1-(3-Methylphenyl)-2-{4-[(6,7-dimethoxy-4-quinolyl)oxy]phenoxy}acetamide], for which the half-maximal inhibitory concentration (IC50) worked out at 80 nM.

`COc1cc2nccc(Oc3ccc(OCCNc4cccc(C)c4)cc3)c2cc1OC` [Example 785, N-(2-{4-[(6,7-Dimethoxy-4-quinolyl)oxy]phenoxy}ethyl)-N-(3-methylphenyl)amine]: the 50% inhibitory concentration (IC50) amounted to 71 nM. On the same count and under the same terms, then `COc1cc2nccc(Oc3ccc(OCC(=O)Nc4ccc(C)cc4)cc3)c2cc1OC` [Example 786, N1-(4-Methylphenyl)-2-{4-[(6,7-dimethoxy-4-quinolyl)oxy]phenoxy}acetamide], with 46 nM; and `COc1cc2nccc(Oc3ccc(OCCNc4ccc(C)cc4)cc3)c2cc1OC` [Example 787, N-(2-{4-[(6,7-Dimethoxy-4-quinolyl)oxy]phenoxy}ethyl)-N-(4-methylphenyl)amine], with 37 nM; and `COc1cc2nccc(Oc3ccc(OCC(=O)Nc4cccc(Cl)c4)cc3)c2cc1OC` [Example 788, N1-(3-Chlorophenyl)-2-{4-[(6,7-dimethoxy-4-quinolyl)oxy]phenoxy}acetamide], with 122 nM. Same read-out and setting: then `COc1cc2nccc(Oc3ccc(OCC(=O)Nc4ccc(Cl)cc4)cc3)c2cc1OC` [Example 789, N1-(4-Chlorophenyl)-2-{4-[(6,7-dimethoxy-4-quinolyl)oxy]phenoxy}acetamide], with 154 nM.

The assay is the same for the next values; noted with them: MO7e cells, h-SCF stimulation; read-out: c-kit IC50.
Take `COc1cccc(OCCSc2ccc(Oc3ccnc4cc(OC)c(OC)cc34)cc2)c1` [Example 812, 6,7-Dimethoxy-4-(4-{[2-(3-methoxyphenoxy)ethyl]sulfanyl}phenoxy)quinoline]: the IC50 is 326 nM. On the same count and under the same terms, the figure for `COc1ccc(OCCSc2ccc(Oc3ccnc4cc(OC)c(OC)cc34)cc2)cc1` [Example 813, 6,7-Dimethoxy-4-(4-{[2-(4-methoxyphenoxy)ethyl]sulfanyl}phenoxy)quinoline] is 402 nM. The same measure, in the same setting: the figure for `COc1cc2nccc(Oc3ccc(SCCOc4ccc(C)cc4)cc3)c2cc1OC` [Example 814, 6,7-Dimethoxy-4-(4-{[2-(4-methylphenoxy)ethyl]sulfanyl}phenoxy)quinoline] is 405 nM. Still for that read-out and setting: then `COc1cc2nccc(Oc3ccc(SCCOc4ccccc4C(C)C)cc3)c2cc1OC` [Example 815, 4-(4-{[2-(2-Isopropylphenoxy)ethyl]sulfanyl}phenoxy)-6,7-dimethoxyquinoline], with 180 nM; and `COc1cc2nccc(Oc3ccc(SCCOc4ccc(C(C)C)cc4)cc3)c2cc1OC` [Example 816, 4-(4-{[2-(4-Isopropylphenoxy)ethyl]sulfanyl}phenoxy)-6,7-dimethoxyquinoline], with 123 nM; and `COc1cc2nccc(Oc3ccc(SCCOc4ccccc4C)cc3)c2cc1OC` [Example 817, 6,7-Dimethoxy-4-(4-{[2-(2-methylphenoxy)ethyl]sulfanyl}phenoxy)quinoline], with 195 nM. Take `COc1cc2nccc(Oc3ccc(SCCOc4ccc(Cl)cc4)cc3)c2cc1OC` [Example 818, 4-(4-{[2-(4-Chlorophenoxy)ethyl]sulfanyl}phenoxy)-6,7-dimethoxyquinoline]: the IC50 was 205 nM. The same measure, in the same setting: the figure for `COc1cc2nccc(Oc3ccc(SCCOc4ccccc4Cl)cc3)c2cc1OC` [Example 819, 4-(4-{[2-(2-Chlorophenoxy)ethyl]sulfanyl}phenoxy)-6,7-dimethoxyquinoline] is 212 nM. Same read-out and setting: the figure for `COc1cc2nccc(Oc3ccc(SCCOc4cccc(Cl)c4)cc3)c2cc1OC` [Example 820, 4-(4-{[2-(3-Chlorophenoxy)ethyl]sufanyl}phenoxy)-6,7-dimethoxyquinoline] is 187 nM; for `COc1cc2nccc(Oc3ccc(SCCOc4cccc(F)c4)cc3)c2cc1OC` [Example 821, 4-(4-{[2-(3-Fluorophenoxy)ethyl]sulfanyl}phenoxy)-6,7-dimethoxyquinoline] it is 184 nM; for `COc1cc2nccc(Oc3ccc(SCCOc4ccccc4F)cc3)c2cc1OC` [Example 822] it is 451 nM. Same read-out and setting: then `COc1cc2nccc(Oc3ccc(SCCOc4cccc(C)c4)cc3)c2cc1OC` [Example 823, 6,7-Dimethoxy-4-(4-{[2-(3-methylphenoxy)ethyl]sulfanyl}phenoxy)quinoline], with 236 nM. As for `COc1cc2nccc(Oc3ccc(SCCOc4ccc(F)cc4)cc3)c2cc1OC` [Example 824, 4-(4-{[2-(4-Fluorophenoxy)ethyl]sulfanyl}phenoxy)-6,7-dimethoxyquinoline], the IC50 was 268 nM. Same read-out and setting: the figure for `COc1cc2nccc(Oc3ccc(SCCOc4ccc(Cl)cc4Cl)cc3)c2cc1OC` [Example 825, 4-(4-{[2-(2,4-Dichlorophenoxy)ethyl]sulfanyl}phenoxy)-6,7-dimethoxyquinoline] is 333 nM. Still for that read-out and setting: then `COc1cc2nccc(Oc3ccc(SCCOc4ccc(C)cc4C)cc3)c2cc1OC` [Example 826, 4-(4-{[2-(2,4-Dimethylphenoxy)ethyl]sulfanyl}phenoxy)-6,7-dimethoxyquinoline], with 170 nM; and `COc1cc2nccc(Oc3ccc(SCCOc4ccc(C)c(C)c4)cc3)c2cc1OC` [Example 827, 4-(4-{[2-(3,4-Dimethylphenoxy)ethyl]sulfanyl}phenoxy)-6,7-dimethoxyquinoline], with 175 nM; and `COc1cc2nccc(Oc3ccc(S(=O)(=O)CCOc4ccc(C(C)C)cc4)cc3)c2cc1OC` [Example 835, 4-[(6,7-Dimethoxy-4-quinolyl)oxy]phenyl [2-(4-isopropylphenoxy)ethyl]sulfone], with 668 nM. On the same count and under the same terms, the figure for `COc1cc2nccc(Oc3ccc(SCCCOc4cccc(C)c4)cc3)c2cc1OC` [Example 841, 6,7-Dimethoxy-4-(4-{[3-(3-methylphenoxy)propyl]sulfanyl}phenoxy)quinoline] is 118 nM; for `COc1cc2nccc(Oc3ccc(SCCCOc4ccccc4F)cc3)c2cc1OC` [Example 842, 4-(4-{[3-(2-Fluorophenoxy)propyl]sulfanyl}phenoxy)-6,7-dimethoxyquinoline] it is 127 nM.

In the case of `COc1cc2nccc(Oc3ccc(SCCCCOc4ccccc4F)cc3)c2cc1OC` [Example 843, 4-(4-{[4-(2-Fluorophenoxy)butyl]sulfanyl}phenoxy)-6,7-dimethoxyquinoline], the IC50 worked out at 263 nM. Consider `COc1cc2nccc(Oc3ccc(SCCCCOc4cccc(C)c4)cc3)c2cc1OC` [Example 844, 6,7-Dimethoxy-4-(4-{[4-(3-methylphenoxy)butyl]sulfanyl}phenoxy)quinoline], for which the concentration for half-maximal inhibition (IC50) was 450 nM. The same measure, in the same setting: the figure for `COc1cc2ncnc(Oc3ccc(SCCCOc4ccccc4F)cc3)c2cc1OC` [Example 845, 4-(4-{[3-(2-Fluorophenoxy)propyl]sulfanyl}phenoxy)-6,7-dimethoxyquinazoline] is 453 nM.

The assay is the same for the next values; noted with them: Mo7e, figure in parentheses in −( ); at 1000 nM.
On to `COc1cc2nccc(Oc3ccc(S(=O)(=O)CCOc4ccc(C)c(C)c4)cc3)c2cc1OC` [Example 833, 4-[(6,7-Dimethoxy-4-quinolyl)oxy]phenyl [2-(3,4-dimethylphenoxy)ethyl]sulfone], for which the inhibition at 1 µM was determined as 26%. Still for that read-out and setting: the figure for `COc1cc2nccc(Oc3ccc(S(=O)(=O)CCOc4ccccc4C(C)C)cc3)c2cc1OC` [Example 836, 4-[(6,7-Dimethoxy-4-quinolyl)oxy]phenyl [2-(2-isopropylphenoxy)ethyl]sulfone] is 39%; for `COc1cc2nccc(Oc3ccc([S+]([O-])CCOc4ccc(Cl)cc4Cl)cc3)c2cc1OC` (centres unmarked) [Example 840, [2-(2,4-Dichlorophenoxy)ethyl]{4-[(6,7-dimethoxy-4-quinolyl)oxy]phenyl} sulfoxide] it is 14%; for `COc1cc2ncnc(Oc3ccc(SCCCOc4cccc(C)c4)cc3)c2cc1OC` [Example 846, 6,7-Dimethoxy-4-(4-{[3-(3-methylphenoxy)propyl]sulfanyl}phenoxy)quinazoline] it is 33%.

Still in this assay, the particulars now being: Mo7e, figure within parentheses in −( ) or >1000( ); at 1000 nM.
Turning to `COc1cc2ncnc(Oc3ccc(OCC(=O)N4CCCCC4)cc3)c2cc1OC` [Example 806, 2-{4-[(6,7-Dimethoxy-4-quinazolinyl)oxy]phenoxy}-1-piperidino-1-ethanone], the inhibition at 1 µM came to 35%.

Usually IC50 stands for the point on the concentration scale where inhibition reaches its midpoint. One may read the inhibition as how much of the control response was suppressed.
